pIC50: −log10 of the molar value.
What follows are compounds tested against T1, GST-RIPK1 (recombinant GST-RIPK1 kinase domain (residues 1-327)) (Homo sapiens, UniProt Q13546) (assay: RIPK1-ADP-Glo enzymatic assay). Settings: 25 nM GST-RIPK1, 300 μM ATP, 3 μM dephosphorylated-MBP; 30 minutes pre-incubation, 150 minutes reaction; ten-point titration.
T1 construct: recombinant GST-RIPK1 kinase domain (residues 1-327) enzyme; made in house; host or cells: baculovirus-transfected Sf21 insect cells
T1 sequence (Q13546 1-327): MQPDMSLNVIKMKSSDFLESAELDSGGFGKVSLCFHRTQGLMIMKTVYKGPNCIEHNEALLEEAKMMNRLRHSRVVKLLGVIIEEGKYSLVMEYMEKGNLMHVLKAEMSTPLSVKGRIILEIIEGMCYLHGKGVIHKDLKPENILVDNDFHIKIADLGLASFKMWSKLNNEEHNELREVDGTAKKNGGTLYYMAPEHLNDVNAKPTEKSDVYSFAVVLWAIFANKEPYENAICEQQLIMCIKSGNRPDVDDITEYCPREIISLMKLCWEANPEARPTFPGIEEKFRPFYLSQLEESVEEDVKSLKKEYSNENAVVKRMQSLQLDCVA
Type: biochemical
Procedure, shortened: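 Ten-point 1:3 titrations from 100000 nM, 1% DMSO, were preincubated 30 min with 25 nM GST-RIPK1 (1-327) before starting with 300 μM ATP plus 3 μM dephosphorylated MBP; 150 min reaction. ADP-Glo luminescence measured ATP-to-ADP conversion; EC50 by four-parameter sigmoidal regression.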

| Compound | pIC50 |
| --- | --- |
| COc1cnc(N2CCC(F)(C(=O)N3C[C@@H]4C[C@H]3c3cncc(C#N)c3O4)CC2)nc1 [Compound 1-80, (2S,5S)-4-(4-fluoro-1-(5-methoxypyrimidin-2-yl)piperidine-4-carbonyl)-2,3,4,5-tetrahydro-2,5-methanopyrido[3,4-f][1,4]oxazepine-9-carbonitrile] | 6.48 |
| CC12CCC(C(=O)N3C[C@@H]4C[C@H]3c3cncc(C#N)c3O4)(CC1)C2 [Compound 1-94, (2S,5S)-4-(4-methylbicyclo[2.2.1]heptane-1-carbonyl)-2,3,4,5-tetrahydro-2,5-methanopyrido[3,4-f][1,4]oxazepine-9-carbonitrile] | 7.82 |
| CC1(C(=O)N2C[C@@H]3C[C@H]2c2cncc(C#N)c2O3)CCC(F)(F)C1 (stereo partly drawn) [Compound 1-30, (2S,5S)-4-(3,3-difluoro-1-methylcyclopentane-1-carbonyl)-2,3,4,5-tetrahydro-2,5-methanopyrido[3,4-f][1,4]oxazepine-9-carbonitrile] | 7.18 |
| CC12CC(C(=O)N3C[C@@H]4C[C@H]3c3cncc(C#N)c3O4)(C1)C2 [Compound 1-104, (2S,5S)-4-(3-methylbicyclo[1.1.1]pentane-1-carbonyl)-2,3,4,5-tetrahydro-2,5-methanopyrido[3,4-f][1,4]oxazepine-9-carbonitrile] | 6.69 |
| N#Cc1cncc2c1O[C@H]1C[C@@H]2N(C(=O)C2(CC(F)F)CCC2)C1 [Compound 1-44, (2S,5S)-4-[1-(2,2-difluoroethyl)cyclobutane-1-carbonyl]-2,3,4,5-tetrahydro-2,5-methanopyrido[3,4-f][1,4]oxazepine-9-carbonitrile] | 6.60 |
| CCC(C)(C(=O)N1C[C@@H]2C[C@H]1c1cncc(C#N)c1O2)C(F)F (single isomer, unassigned) [Compound 1-85, (2S,5S)-4-(2-(R or S)-(difluoromethyl)-2-methylbutanoyl)-2,3,4,5-tetrahydro-2,5-methanopyrido[3,4-f][1,4]oxazepine-9-carbonitrile] | 7.72 |
| CC1(C(=O)N2C[C@@H]3C[C@H]2c2cncc(C#N)c2O3)CCCC1(F)F (single isomer, unassigned) [Compound 1-39] | 7.51 |
| CCC(C)(C(=O)N1C[C@@H]2C[C@H]1c1cncc(C#N)c1O2)C(F)F (single isomer, unassigned) [Compound 1-84, (2S,5S)-4-(2-(R or S)-(difluoromethyl)-2-methylbutanoyl)-2,3,4,5-tetrahydro-2,5-methanopyrido[3,4-f][1,4]oxazepine-9-carbonitrile] | 7.33 |
| CC12COC(C(=O)N3C[C@@H]4C[C@H]3c3cncc(C#N)c3O4)(C1)C2 [Compound 1-73, (2S,5S)-4-(4-methyl-2-oxabicyclo[2.1.1]hexane-1-carbonyl)-2,3,4,5-tetrahydro-2,5-methanopyrido[3,4-f][1,4]oxazepine-9-carbonitrile] | 6.30 |
| N#Cc1cncc2c1O[C@H]1C[C@@H]2N(C(=O)C2(F)CCN(c3cc(C4CC4)ncn3)CC2)C1 [Compound 1-71, (2S,5S)-4-(1-(6-cyclopropylpyrimidin-4-yl)-4-fluoropiperidine-4-carbonyl)-2,3,4,5-tetrahydro-2,5-methanopyrido[3,4-f][1,4]oxazepine-9-carbonitrile] | 6.63 |
| N#Cc1cncc2c1O[C@H]1C[C@@H]2N(C(=O)C2(F)CCN(c3ccnc4c(F)cnn34)CC2)C1 [Compound 1-55, (2S,5S)-4-(4-fluoro-1-(3-fluoropyrazolo[1,5-a]pyrimidin-7-yl)piperidine-4-carbonyl)-2,3,4,5-tetrahydro-2,5-methanopyrido[3,4-f][1,4]oxazepine-9-carbonitrile] | 7.74 |
| COC(C)(C(=O)N1C[C@@H]2C[C@H]1c1cncc(C#N)c1O2)C1CC1 (mixture of isomers) [Compound 1-62, (2S,5S)-4-(2-(S and R)-cyclopropyl-2-methoxypropanoyl)-2,3,4,5-tetrahydro-2,5-methanopyrido[3,4-f][1,4]oxazepine-9-carbonitrile] | 6.35 |
| N#Cc1cncc2c1O[C@H]1C[C@@H]2N(C(=O)C23CCC(CC2)OC3)C1 [Compound 1-26, (2S,5S)-4-(2-oxabicyclo[2.2.2]octane-4-carbonyl)-2,3,4,5-tetrahydro-2,5-methanopyrido[3,4-f][1,4]oxazepine-9-carbonitrile] | 6.50 |

The remaining lines, values ahead:

| pIC50 | Compound |
| --- | --- |
| 6.42 | O=C(N1C[C@@H]2C[C@H]1c1cncnc1O2)C12CCC(F)(CC1)C2 [Compound 3-3, ((5S,8S)-7,8-Dihydro-5,8-methanopyrimido[5,4-f][1,4]oxazepin-6(5H)-yl)(4-fluorobicyclo[2.2.1]heptan-1-yl)methanone] |
| 6.42 | CC1(CC#Cc2cncc3c2O[C@H]2C[C@@H]3N(C(=O)C34CCC(F)(CC3)C4)C2)COC1 [Compound 2-116, (4-fluorobicyclo[2.2.1]heptan-1-yl)((2S,5S)-9-(3-(3-methyloxetan-3-yl)prop-1-yn-1-yl)-2,3-dihydro-2,5-methanopyrido[3,4-f][1,4]oxazepin-4(5H)-yl)methanone] |
| 5.87 | CC(C)(C(=O)N1C[C@H]2Cc3c(C#N)cncc3[C@@H]1C2)C(F)F (single isomer, unassigned) [Compound 5-5] |
| 7.62 | CC(C)(C(=O)N1C[C@@H]2C[C@H]1c1cncc(C#Cc3ccnc(N)c3)c1O2)C(F)F [Compound 2-39, 1-((2S,5S)-9-((2-aminopyridin-4-yl)ethynyl)-2,3-dihydro-2,5-methanopyrido[3,4-f][1,4]oxazepin-4(5H)-yl)-3,3-difluoro-2,2-dimethylpropan-1-one] |
| 6.91 | O=C(N1C[C@@H]2C[C@H]1c1cncc(Cl)c1O2)C12CCC(C1)C2 [Compound 2-29, bicyclo[2.1.1]hexan-1-yl((2S,5S)-9-chloro-2,3-dihydro-2,5-methanopyrido[3,4-f][1,4]oxazepin-4(5H)-yl)methanone] |
| 7.21 | CCC(C)(C#N)C(=O)N1C[C@@H]2C[C@H]1c1cncc(C#N)c1S2 (single isomer, unassigned) [Compound 4-9, (2S,5S)-4-(2-(R or S)-cyano-2-methylbutanoyl)-2,3,4,5-tetrahydro-2,5-methanopyrido[3,4-f][1,4]thiazepine-9-carbonitrile] |
| 7.82 | N#Cc1cncc2c1S[C@H]1C[C@@H]2N(C(=O)C23CCC(C(F)(F)F)(CC2)C3)C1 [Compound 4-2, (2S,5S)-4-(4-(trifluoromethyl)bicyclo[2.2.1]heptane-1-carbonyl)-2,3,4,5-tetrahydro-2,5-methanopyrido[3,4-f][1,4]thiazepine-9-carbonitrile] |
| 6.95 | N#CC12CCC(C(=O)N3C[C@@H]4C[C@H]3c3cncc(F)c3O4)(C1)C2 [Compound 2-24, 4-((2S,5S)-9-fluoro-2,3,4,5-tetrahydro-2,5-methanopyrido[3,4-f][1,4]oxazepine-4-carbonyl)bicyclo[2.1.1] hexane-1-carbonitrile] |
| 7.38 | CC(C)(C(=O)N1C[C@@H]2C[C@H]1c1cncc(C#Cc3cccc(F)c3)c1O2)C(F)F [Compound 2-42, 3,3-difluoro-1-((2S,5S)-9-((3-fluorophenyl)ethynyl)-2,3-dihydro-2,5-methanopyrido[3,4-f][1,4]oxazepin-4(5H)-yl)-2,2-dimethylpropan-1-one] |
| 7.89 | COc1cccc(C#Cc2cncc3c2O[C@H]2C[C@@H]3N(C(=O)C34CCC(F)(CC3)C4)C2)c1 [Compound 2-98, (4-fluorobicyclo[2.2.1]heptan-1-yl)((2S,5S)-9-((3-methoxyphenyl)ethynyl)-2,3-dihydro-2,5-methanopyrido[3,4-f][1,4]oxazepin-4(5H)-yl)methanone] |
| 6.78 | C[C@@H]1C2CN(C(=O)C34CCC(C(F)(F)F)(CC3)C4)[C@H]1c1cncc(C#N)c1O2 (single isomer, unassigned) [Compound 5-4] |
| 8.00 | N#CCc1cccc(C#Cc2cncc3c2O[C@H]2C[C@@H]3N(C(=O)C34CCC(F)(CC3)C4)C2)c1 [Compound 2-99, 2-(3-(((2S,5S)-4-(4-fluorobicyclo[2.2.1]heptane-1-carbonyl)-2,3,4,5-tetrahydro-2,5-methanopyrido[3,4-f][1,4]oxazepin-9-yl)ethynyl)phenyl) acetonitrile] |
| 7.18 | CC(C)(C(=O)N1C[C@@H]2C[C@H]1c1cncc(C#Cc3ccccc3)c1O2)C(F)F [Compound 2-47, 3,3-Difluoro-2,2-dimethyl-1-((2S,5S)-9-(phenylethynyl)-2,3-dihydro-2,5-methanopyrido[3,4-f][1,4]oxazepin-4(5H)-yl)propan-1-one] |
| 7.18 | Cc1ncccc1C#Cc1cncc2c1O[C@H]1C[C@@H]2N(C(=O)C(C)(C)C(F)F)C1 [Compound 2-82, 3,3-difluoro-2,2-dimethyl-1-((2S,5S)-9-((2-methylpyridin-3-yl)ethynyl)-2,3-dihydro-2,5-methanopyrido[3,4-f][1,4]oxazepin-4(5H)-yl)propan-1-one] |
| 6.28 | CC(C)(C)C(=O)N1C[C@@H]2C[C@H]1c1cncc(C#CC(O)(c3ccccc3)C(F)(F)F)c1O2 (stereo partly drawn) [Compound 2-36, 2,2-dimethyl-1-((2S,5S)-9-(4,4,4-trifluoro-3-hydroxy-3-phenylbut-1-yn-1-yl)-2,3-dihydro-2,5-methanopyrido[3,4-f][1,4]oxazepin-4(5H)-yl)propan-1-one] |
